According to ChEMBL document CHEMBL1134662, “Selective, high affinity peptide antagonists of alpha-melanotropin action at human melanocortin receptor 4: their synthesis and biological evaluation in vitro” (J Med Chem, 2001):
pEC50, pKi: −log10 of the molar value. Peptide text beside a SMILES is read from it.

Assays:
Melanocortin receptor 5 [1] = molecular target: T1, Melanocortin receptor 5 (Homo sapiens, UniProt P33032)
Description: Binding affinity against human melanocortin receptor 5 (hMC5R) (concentration of the peptide at 50% specific binding)

Melanocortin receptor 5 [2] = molecular target: T1, Melanocortin receptor 5; test: Increase in intracellular cAMP in CHO cells expressing human melanocortin receptor 5.; assay type: functional, cell-based
Melanocortin receptor 4 = Melanocortin receptor 4 (Homo sapiens, UniProt P32245)
Chain of Melanocortin receptor 4 (P32245 whole entry): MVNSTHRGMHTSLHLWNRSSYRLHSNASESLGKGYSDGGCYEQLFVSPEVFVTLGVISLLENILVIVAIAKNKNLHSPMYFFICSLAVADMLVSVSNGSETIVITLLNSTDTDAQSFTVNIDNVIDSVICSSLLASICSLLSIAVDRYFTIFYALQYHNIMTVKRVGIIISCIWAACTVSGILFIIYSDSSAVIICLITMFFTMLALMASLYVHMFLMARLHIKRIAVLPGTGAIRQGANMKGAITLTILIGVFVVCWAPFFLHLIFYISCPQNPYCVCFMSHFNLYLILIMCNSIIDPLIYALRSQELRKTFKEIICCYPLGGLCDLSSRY
Description: Binding affinity against human melanocortin receptor 4 (hMC4R) (concentration of the peptide at 50% specific binding)

Melanocortin receptor 3 = Melanocortin receptor 3 (Homo sapiens, UniProt P41968)
Chain of Melanocortin receptor 3 (P41968 whole entry): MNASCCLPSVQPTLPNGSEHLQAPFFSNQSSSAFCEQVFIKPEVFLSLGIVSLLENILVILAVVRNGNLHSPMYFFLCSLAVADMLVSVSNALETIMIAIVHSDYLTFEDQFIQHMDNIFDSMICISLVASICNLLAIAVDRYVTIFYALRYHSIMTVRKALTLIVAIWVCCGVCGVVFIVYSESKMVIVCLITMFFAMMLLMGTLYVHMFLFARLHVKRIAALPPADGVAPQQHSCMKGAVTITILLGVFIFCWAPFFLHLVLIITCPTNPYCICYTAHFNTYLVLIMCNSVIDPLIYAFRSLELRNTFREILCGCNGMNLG
Description: Binding affinity against human melanocortin receptor 3 (hMC3R) (concentration of the peptide at 50% specific binding)

Melanocortin receptor 5 [3] = molecular target: T1, Melanocortin receptor 5; test: Signal transduction efficacy in cAMP assay in the CHO cells expressing human melanocortin receptor 5; assay type: functional, cell-based

T1 sequence (P33032 whole entry): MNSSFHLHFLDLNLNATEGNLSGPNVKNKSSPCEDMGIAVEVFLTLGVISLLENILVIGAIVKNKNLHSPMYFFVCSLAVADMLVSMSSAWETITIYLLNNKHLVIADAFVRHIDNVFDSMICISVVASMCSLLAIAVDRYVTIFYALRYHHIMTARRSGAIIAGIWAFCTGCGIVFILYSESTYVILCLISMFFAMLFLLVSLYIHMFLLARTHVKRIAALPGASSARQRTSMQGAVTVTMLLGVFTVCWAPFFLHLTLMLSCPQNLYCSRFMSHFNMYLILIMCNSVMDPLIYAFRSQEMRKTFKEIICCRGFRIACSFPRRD

| Structure (SMILES) | pKi (Melanocortin receptor 5 [1]) | pEC50 (Melanocortin receptor 5 [2]; cho) | pKi (Melanocortin receptor 4) | pKi (Melanocortin receptor 3) | pEC50 (Melanocortin receptor 5 [2]) | Activation at 5 µM at 5nM (Melanocortin receptor 5 [3]) [%] | Inhibition at 10nM (Melanocortin receptor 5 [3]) [%] |
| --- | --- | --- | --- | --- | --- | --- | --- |
| CC(=O)N[C@H]1CSSC[C@@H](C(N)=O)NC(=O)CNC(=O)[C@H](Cc2c[nH]c3ccccc23)NC(=O)[C@H](CCCN=C(N)N)NC(=O)[C@@H](Cc2ccc3ccccc3c2)NC(=O)[C@H](Cc2c[nH]cn2)NC(=O)[C@H](CCC(=O)O)NC1=O | 9.41 | 9.66 | 9.24 | 8.59 | – | – | – |
| N=C(N)NCCC[C@@H]1NC(=O)[C@@H](Cc2ccc3ccccc3c2)NC(=O)[C@H](Cc2cnc[nH]2)NC(=O)[C@@H](N)CC(=O)NCCCC[C@@H](C(N)=O)NC(=O)[C@H](Cc2c[nH]c3ccccc23)NC1=O | 7.74 | – | 8.80 | 7.85 | 7.74 | – | – |
| N=C(N)NCCC[C@H]1NC(=O)[C@@H](Cc2ccc3ccccc3c2)NC(=O)CCC(=O)NCCCC[C@H](C(N)=O)NC(=O)[C@@H](Cc2c[nH]c3ccccc23)NC1=O | 5.15 | – | 5.43 | 5.23 | – | 5 | – |
| N=C(N)NCCC[C@@H]1NC(=O)[C@@H](Cc2ccc3ccccc3c2)NC(=O)[C@@H](N)CC(=O)NCCCC[C@@H](C(N)=O)NC(=O)[C@H](Cc2c[nH]c3ccccc23)NC1=O | 7.62 | – | 8.40 | 6.38 | 6.70 | – | – |
| N=C(N)NCCC[C@@H]1NC(=O)[C@@H](Cc2ccc3ccccc3c2)NC(=O)[C@H](Cc2c[nH]cn2)NCC(=O)CC[C@@H](C(N)=O)NC(=O)[C@H](Cc2c[nH]c3ccccc23)NC1=O | 5.62 | < 5.30 | 6.38 | 5.54 | – | – | – |
| N=C(N)NCCC[C@@H]1NC(=O)[C@@H](Cc2ccc3ccccc3c2)NC(=O)CCC(=O)NCCCC[C@@H](C(N)=O)NC(=O)[C@H](Cc2c[nH]c3ccccc23)NC1=O | 6.27 | – | 9.30 | 6.82 | 6.28 | – | – |
| CCC1CC(=O)N[C@H](Cc2ccc3ccccc3c2)C(=O)N[C@@H](CCCN=C(N)N)C(=O)N[C@@H](Cc2c[nH]c3ccccc23)C(=O)N[C@H](C(N)=O)CCCCNC1=O (stereo in doubt; 17) | 6.85 | 6.62 | 9.24 | 6.92 | – | – | – |
| N=C(N)NCCC[C@@H]1NC(=O)[C@@H](Cc2ccc3ccccc3c2)NC(=O)CCC(=O)NCCC[C@@H](C(N)=O)NC(=O)[C@H](Cc2c[nH]c3ccccc23)NC1=O | 6.89 | – | 9.43 | 7.25 | 6.52 | – | – |
| N=C(N)NCCC[C@@H]1NC(=O)[C@@H](Cc2ccc3ccccc3c2)NCC(=O)CC[C@H](C(N)=O)NC(=O)[C@@H](Cc2c[nH]c3ccccc23)NC1=O | – | – | – | – | – | – | 1 |
| N=C(N)NCCC[C@@H]1NC(=O)[C@@H](Cc2ccc3ccccc3c2)NC(=O)CCC(=O)NCCCC[C@H](C(N)=O)NC(=O)[C@@H](Cc2c[nH]c3ccccc23)NC1=O | 5.31 | – | 5.89 | 5.23 | – | 0 | – |
| CC(=O)N[C@H]1CSSC[C@@H](C(=O)N2CCC[C@H]2C(=O)N2CCC[C@H]2C(=O)N[C@@H](CCCCN)C(=O)N[C@@H](CC(=O)O)C(N)=O)NC(=O)CNC(=O)[C@H](Cc2c[nH]c3ccccc23)NC(=O)[C@H](CCCNC(=N)N)NC(=O)[C@@H](Cc2ccc3ccccc3c2)NC(=O)[C@H](Cc2c[nH]cn2)NC(=O)[C@H](CCC(=O)O)NC1=O (HELM PEPTIDE1{[ac].C.E.H.[O=C([C@@H](Cc1ccc2ccccc2c1)N[*:1])[*:2]].R.W.G.C.P.P.K.D.[am]}$PEPTIDE1,PEPTIDE1,2:R3-9:R3$$$V2.0) | 7.80 | – | 8.82 | 7.60 | 7.38 | – | – |
| CC(=O)N[C@H]1CSSC[C@@H](C(=O)N2CCC[C@H]2C(=O)N2CCC[C@H]2C(=O)N[C@@H](CCCCN)C(=O)N[C@@H](CC(=O)O)C(N)=O)NC(=O)CNC(=O)[C@H](Cc2c[nH]c3ccccc23)NC(=O)[C@H](CCCN=C(N)N)NC(=O)[C@@H](Cc2ccc(Cl)c(Cl)c2)NC(=O)[C@H](Cc2c[nH]cn2)NC(=O)[C@H](CCC(=O)O)NC1=O | 7.66 | – | 8.66 | 7.70 | 7.14 | – | – |
| N=C(N)NCCC[C@@H]1NC(=O)[C@@H](Cc2ccc3ccccc3c2)NC(=O)CCC(=O)NCC[C@@H](C(N)=O)NC(=O)[C@H](Cc2c[nH]c3ccccc23)NC1=O | 5.57 | – | 7.24 | 5.52 | – | – | – |
| N=C(N)NCCC[C@@H]1NC(=O)[C@@H](Cc2ccc3ccccc3c2)NC(=O)CCC(=O)NCCCC[C@H](C(N)=O)NC(=O)[C@H](Cc2c[nH]c3ccccc23)NC1=O | 5.31 | – | 5.42 | 5.23 | – | 7 | – |
| CC(=O)N[C@H]1CC(=O)NCCCC[C@@H](C(N)=O)NC(=O)[C@H](Cc2c[nH]c3ccccc23)NC(=O)[C@H](CCCNC(=N)N)NC(=O)[C@@H](Cc2ccc3ccccc3c2)NC1=O | 6.14 | – | 8.37 | 6.72 | 6.00 | – | – |
| N=C(N)NCCC[C@@H]1NC(=O)[C@@H](Cc2ccc3ccccc3c2)NC(=O)[C@H](Cc2c[nH]cn2)NC(=O)CCC(=O)NCCCC[C@@H](C(N)=O)NC(=O)[C@H](Cc2c[nH]c3ccccc23)NC1=O | 6.82 | – | 9.06 | 7.33 | 6.77 | – | – |
| CCC1CC(=O)N[C@H](Cc2ccc3ccccc3c2)C(=O)N[C@@H](CCCN=C(N)N)C(=O)N[C@@H](Cc2c[nH]c3ccccc23)C(=O)N[C@H](C(N)=O)CCCCNC1=O (stereo in doubt; 18) | 6.40 | 6.66 | 8.82 | 6.62 | – | – | – |
| N=C(N)NCCC[C@@H]1NC(=O)[C@H](Cc2ccc3ccccc3c2)NC(=O)CCC(=O)NC2CCC(C(N)=O)N2C(=O)[C@@H](Cc2c[nH]c3ccccc23)NC1=O (stereo not given in full) | 5.60 | – | 6.22 | 5.52 | – | 3 | – |
| N=C(N)NCCC[C@@H]1NC(=O)[C@H](Cc2ccc3ccccc3c2)NC(=O)CCC(=O)NCC[C@H](C(N)=O)NC(=O)[C@@H](Cc2c[nH]c3ccccc23)NC1=O | – | – | – | – | – | 13 | – |
| N=C(N)NCCC[C@@H]1NC(=O)[C@@H](Cc2ccc3ccccc3c2)NC(=O)[C@H](Cc2c[nH]cn2)NC(=O)CCC(=O)NC[C@@H](C(N)=O)NC(=O)[C@H](Cc2c[nH]c3ccccc23)NC1=O | 7.19 | – | 9.59 | 7.54 | 6.68 | – | – |
| N=C(N)NCCC[C@@H]1NC(=O)[C@@H](Cc2ccc3ccccc3c2)NC(=O)CCC(=O)NC[C@@H](C(N)=O)NC(=O)[C@H](Cc2c[nH]c3ccccc23)NC1=O | 5.32 | < 5.30 | 6.96 | 5.82 | – | – | – |
| N=C(N)NCCC[C@@H]1NC(=O)[C@@H](Cc2ccc3ccccc3c2)NCC(=O)CC[C@@H](C(N)=O)NC(=O)[C@H](Cc2c[nH]c3ccccc23)NC1=O | 5.30 | – | 6.02 | 5.23 | – | – | – |
